Source: US20260201008A1, “SECRETIN-DERIVED GLP1R SELECTIVE AGONISTS” (GUBRA A/S, priority 2023, published 2026)
Numbered stars: 1 amine (or outer) side, 2 acyl side, 3 side chain; on linkers, the order of the positions; unused ones are H or OH. Square brackets hold non-standard residues; d marks the D form. Side chains are listed from the residue outwards. Peptide text beside a SMILES is read from it. * marks the point of attachment. C20 diacid = O=C(O)CCCCCCCCCCCCCCCCCCC(=O)*; γGlu = O=C(O)[C@H](CCC(=O)[*:2])N[*:1]; AEEA = NCCOCCOCC(=O)O; Aib = CC(C)(N)C(=O)O

Key:
[1] = Turbidity of crude library peptides (absorbance at 600 nm); assay type: physicochemical; details: Physical stability of peptides
How it was run: (§1)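 Values reflect mean ThT emission (ex 450, em 480 nm) over 72 h at 40° C, read every 10 min after 5 min shaking at 700 rpm, plus a single initial absorbance at 600 nm for turbidity. Peptides were at 267 μM, pH 4.0 acetate or pH 7.0 phosphate (50 mM), with 4 μM ThT.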

[2] = Fibril formation of crude library peptides (Thioflavin T); assay type: physicochemical; set-up: key: average ThT fluorescence emission at 480 nm (ex 450 nm), raw units; details: Physical stability of peptides
How it was run: as §1

GLP1R = GLP1R (Homo sapiens, UniProt P43220); assay: hGLP1R potency, cAMP accumulation in CHO-K1 cells stably overexpressing hGLP1R; assay type: cell-based; set-up: host or cells: CHO-K1; details: for EC50: cAMP accumulation, CHO-K1 cells overexpressing hGLP1R, read-out: hGLP1R pEC50 (converted); for SCTR EC50/GLP1R EC50 ratio: selectivity for hGLP1R over hSCTR, cAMP accumulation in CHO-K1 cells
Sequence of GLP1R (P43220 24-463): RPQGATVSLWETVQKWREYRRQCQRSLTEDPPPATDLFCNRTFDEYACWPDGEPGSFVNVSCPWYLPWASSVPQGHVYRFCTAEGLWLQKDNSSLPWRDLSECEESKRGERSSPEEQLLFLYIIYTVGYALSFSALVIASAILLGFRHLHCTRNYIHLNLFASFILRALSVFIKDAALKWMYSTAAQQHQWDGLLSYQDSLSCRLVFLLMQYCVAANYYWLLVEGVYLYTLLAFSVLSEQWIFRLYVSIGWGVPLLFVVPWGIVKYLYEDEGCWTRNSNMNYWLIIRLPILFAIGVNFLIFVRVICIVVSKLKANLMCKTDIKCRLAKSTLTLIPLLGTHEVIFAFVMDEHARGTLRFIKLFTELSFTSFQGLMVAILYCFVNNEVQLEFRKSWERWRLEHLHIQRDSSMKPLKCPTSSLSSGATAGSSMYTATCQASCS
How it was run: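 Potency reflects cAMP accumulation measured by time-resolved fluorescence energy transfer after a 30 min room-temperature stimulation in IBMX-containing (0.5 mM) DPBS with casein. Purified peptides were tested in duplicate over eleven threefold dilutions, and EC50 was obtained from sigmoid concentration-response fitting.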

SCTR = SCTR (Homo sapiens, UniProt P47872); assay: hSCTR potency, cAMP accumulation in CHO-K1 cells stably overexpressing hSCTR; assay type: cell-based; set-up: alternatively Euroscreen ES-712-AF; FAST-0161L; host or cells: CHO-K1; details: cAMP accumulation, CHO-K1 cells overexpressing hSCTR; read-out: hSCTR pEC50 (converted)
Sequence of SCTR (P47872 23-440): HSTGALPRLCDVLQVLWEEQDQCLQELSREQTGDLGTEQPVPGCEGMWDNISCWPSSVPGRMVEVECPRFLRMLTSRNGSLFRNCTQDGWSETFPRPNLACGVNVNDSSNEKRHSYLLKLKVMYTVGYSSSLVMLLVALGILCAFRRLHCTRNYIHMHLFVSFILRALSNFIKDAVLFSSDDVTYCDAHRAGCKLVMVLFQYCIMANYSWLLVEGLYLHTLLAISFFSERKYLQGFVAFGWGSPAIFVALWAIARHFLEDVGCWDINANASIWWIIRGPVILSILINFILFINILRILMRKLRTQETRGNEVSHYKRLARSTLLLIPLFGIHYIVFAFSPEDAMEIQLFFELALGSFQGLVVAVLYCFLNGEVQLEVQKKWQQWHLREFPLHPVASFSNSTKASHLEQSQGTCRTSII
How it was run: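 Potency reflects cAMP accumulation after 30 min agonist exposure at room temperature in hSCTR-expressing CHO-K1 cells, with 0.5 mM IBMX present to block phosphodiesterase. EC50 was derived by nonlinear regression.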

Compound | Turbidity (pH 7) [1] | Fibril formation [2] | EC50 (GLP1R) [nM] | SCTR EC50/GLP1R EC50 ratio (GLP1R) | EC50 (SCTR) [nM]
CC(C)C[C@H](NC(=O)[C@H](Cc1ccccc1)NC(=O)[C@H](CCCNC(=N)N)NC(=O)[C@H](CCC(N)=O)NC(=O)[C@H](CC(C)C)NC(=O)C(C)(C)NC(=O)[C@H](C)NC(=O)[C@H](CCC(=O)O)NC(=O)[C@H](CCC(=O)O)NC(=O)[C@H](CCCCNC(=O)COCCOCCNC(=O)COCCOCCNC(=O)CC[C@H](NC(=O)CCCCCCCCCCCCCCCCCCC(=O)O)C(=O)O)NC(=O)[C@H](CC(C)C)NC(=O)[C@H](Cc1c[nH]cn1)NC(=O)[C@H](CO)NC(=O)[C@@H](NC(=O)[C@H](CC(=O)O)NC(=O)[C@H](CO)NC(=O)[C@@H](NC(=O)[C@H](Cc1ccccc1)NC(=O)[C@@H](NC(=O)CNC(=O)[C@H](CCC(=O)O)NC(=O)C(C)(C)NC(=O)[C@@H](N)Cc1c[nH]cn1)[C@@H](C)O)[C@@H](C)O)C(C)C)C(=O)N[C@@H](CCC(=O)O)C(=O)N[C@@H](Cc1c[nH]cn1)C(=O)N[C@@H](CC(C)C)C(=O)N[C@H](C(N)=O)C(C)C [compound 145] (H-H[Aib]EGTFTSDVSHLK([AEEA-AEEA-γGlu-C20 diacid])EEA[Aib]LQRFLEHLV-NH2) | 0.08 | 2891 | 0.00794 | 8838 | 63.1
CC(C)C[C@H](NC(=O)[C@H](Cc1ccccc1)NC(=O)[C@H](CCCNC(=N)N)NC(=O)[C@H](CCC(N)=O)NC(=O)[C@H](C)NC(=O)C(C)(C)NC(=O)[C@H](C)NC(=O)[C@H](CCC(=O)O)NC(=O)[C@H](CCC(=O)O)NC(=O)[C@H](CCCCNC(=O)COCCOCCNC(=O)COCCOCCNC(=O)CC[C@H](NC(=O)CCCCCCCCCCCCCCCCCCC(=O)O)C(=O)O)NC(=O)[C@H](CC(C)C)NC(=O)[C@H](Cc1ccc(O)cc1)NC(=O)[C@H](CO)NC(=O)[C@@H](NC(=O)[C@H](CC(=O)O)NC(=O)[C@H](CO)NC(=O)[C@@H](NC(=O)[C@H](Cc1ccccc1)NC(=O)[C@@H](NC(=O)CNC(=O)[C@H](CCC(=O)O)NC(=O)C(C)(C)NC(=O)[C@@H](N)Cc1c[nH]cn1)[C@@H](C)O)[C@@H](C)O)C(C)C)C(=O)N[C@@H](CCC(=O)O)C(=O)N[C@@H](Cc1c[nH]cn1)C(=O)N[C@@H](CC(C)C)C(=O)N[C@H](C(N)=O)C(C)C [compound 146] (H-H[Aib]EGTFTSDVSYLK([AEEA-AEEA-γGlu-C20 diacid])EEA[Aib]AQRFLEHLV-NH2) | 0.08 | 3918 | 0.00251 | 789678 | 2000
CC(C)C[C@H](NC(=O)[C@H](Cc1ccccc1)NC(=O)[C@H](CCCNC(=N)N)NC(=O)[C@H](CCC(N)=O)NC(=O)[C@H](CC(C)C)NC(=O)C(C)(C)NC(=O)[C@H](C)NC(=O)[C@H](CCC(=O)O)NC(=O)[C@H](CCC(=O)O)NC(=O)[C@H](CCCCNC(=O)COCCOCCNC(=O)COCCOCCNC(=O)CC[C@H](NC(=O)CCCCCCCCCCCCCCCCCCC(=O)O)C(=O)O)NC(=O)[C@H](CC(C)C)NC(=O)[C@H](Cc1ccc(O)cc1)NC(=O)[C@H](CO)NC(=O)[C@@H](NC(=O)[C@H](CC(=O)O)NC(=O)[C@H](CO)NC(=O)[C@@H](NC(=O)[C@H](Cc1ccccc1)NC(=O)[C@@H](NC(=O)CNC(=O)[C@H](CCC(=O)O)NC(=O)C(C)(C)NC(=O)[C@@H](N)Cc1c[nH]cn1)[C@@H](C)O)[C@@H](C)O)C(C)C)C(=O)N[C@@H](CCC(=O)O)C(=O)N[C@@H](CCCCN)C(=O)N[C@@H](CC(C)C)C(=O)N[C@H](C(N)=O)C(C)C [compound 147] (H-H[Aib]EGTFTSDVSYLK([AEEA-AEEA-γGlu-C20 diacid])EEA[Aib]LQRFLEKLV-NH2) | 0.08 | 4336 | 0.00501 | 12361 | 63.1

Continued, values first:

Turbidity (pH 7) [1] | Fibril formation [2] | EC50 (GLP1R) [nM] | SCTR EC50/GLP1R EC50 ratio (GLP1R) | EC50 (SCTR) [nM] | Compound
0.08 | 2928 | 0.0158 | 4094 | 63.1 | CC(C)C[C@H](NC(=O)[C@H](C)NC(=O)[C@H](CO)NC(=O)[C@@H](NC(=O)[C@H](CC(=O)O)NC(=O)[C@H](CO)NC(=O)[C@@H](NC(=O)[C@H](Cc1ccccc1)NC(=O)[C@@H](NC(=O)CNC(=O)[C@H](CCC(=O)O)NC(=O)C(C)(C)NC(=O)[C@@H](N)Cc1c[nH]cn1)[C@@H](C)O)[C@@H](C)O)C(C)C)C(=O)N[C@@H](CCCCNC(=O)COCCOCCNC(=O)COCCOCCNC(=O)CC[C@H](NC(=O)CCCCCCCCCCCCCCCCCCC(=O)O)C(=O)O)C(=O)N[C@@H](CCC(=O)O)C(=O)N[C@@H](CCC(=O)O)C(=O)N[C@@H](C)C(=O)NC(C)(C)C(=O)N[C@@H](CC(C)C)C(=O)N[C@@H](CCC(N)=O)C(=O)N[C@@H](CCCNC(=N)N)C(=O)N[C@@H](Cc1ccccc1)C(=O)N[C@@H](CC(C)C)C(=O)N[C@@H](CCC(=O)O)C(=O)N[C@@H](Cc1c[nH]cn1)C(=O)N[C@@H](CC(C)C)C(=O)N[C@H](C(N)=O)C(C)C [compound 148] (H-H[Aib]EGTFTSDVSALK([AEEA-AEEA-γGlu-C20 diacid])EEA[Aib]LQRFLEHLV-NH2)
0.08 | 2878 | 0.0126 | 2619 | 31.6 | CC(C)C[C@H](NC(=O)[C@H](Cc1ccccc1)NC(=O)[C@H](CCCNC(=N)N)NC(=O)[C@H](CCC(N)=O)NC(=O)[C@H](CC(C)C)NC(=O)C(C)(C)NC(=O)[C@H](C)NC(=O)[C@H](CCC(=O)O)NC(=O)[C@H](CCC(=O)O)NC(=O)[C@H](CCCCNC(=O)COCCOCCNC(=O)COCCOCCNC(=O)CC[C@H](NC(=O)CCCCCCCCCCCCCCCCCCC(=O)O)C(=O)O)NC(=O)[C@H](CC(C)C)NC(=O)[C@H](CC(C)C)NC(=O)[C@H](CO)NC(=O)[C@@H](NC(=O)[C@H](CC(=O)O)NC(=O)[C@H](CO)NC(=O)[C@@H](NC(=O)[C@H](Cc1ccccc1)NC(=O)[C@@H](NC(=O)CNC(=O)[C@H](CCC(=O)O)NC(=O)C(C)(C)NC(=O)[C@@H](N)Cc1c[nH]cn1)[C@@H](C)O)[C@@H](C)O)C(C)C)C(=O)N[C@@H](CCC(=O)O)C(=O)N[C@@H](Cc1c[nH]cn1)C(=O)N[C@@H](CC(C)C)C(=O)N[C@H](C(N)=O)C(C)C [compound 149] (H-H[Aib]EGTFTSDVSLLK([AEEA-AEEA-γGlu-C20 diacid])EEA[Aib]LQRFLEHLV-NH2)
0.08 | 2766 | 0.00501 | 693266 | 3160 | CC(C)C[C@H](NC(=O)[C@H](Cc1ccccc1)NC(=O)[C@H](CCCNC(=N)N)NC(=O)[C@H](CCC(N)=O)NC(=O)[C@H](CCC(=O)O)NC(=O)C(C)(C)NC(=O)[C@H](C)NC(=O)[C@H](CCC(=O)O)NC(=O)[C@H](CCC(=O)O)NC(=O)[C@H](CCCCNC(=O)COCCOCCNC(=O)COCCOCCNC(=O)CC[C@H](NC(=O)CCCCCCCCCCCCCCCCCCC(=O)O)C(=O)O)NC(=O)[C@H](CC(C)C)NC(=O)[C@H](Cc1ccc(O)cc1)NC(=O)[C@H](CO)NC(=O)[C@@H](NC(=O)[C@H](CC(=O)O)NC(=O)[C@H](CO)NC(=O)[C@@H](NC(=O)[C@H](Cc1ccccc1)NC(=O)[C@@H](NC(=O)CNC(=O)[C@H](CCC(=O)O)NC(=O)C(C)(C)NC(=O)[C@@H](N)Cc1c[nH]cn1)[C@@H](C)O)[C@@H](C)O)C(C)C)C(=O)N[C@@H](CCC(=O)O)C(=O)N[C@@H](Cc1c[nH]cn1)C(=O)N[C@@H](CC(C)C)C(=O)N[C@H](C(N)=O)C(C)C [compound 150] (H-H[Aib]EGTFTSDVSYLK([AEEA-AEEA-γGlu-C20 diacid])EEA[Aib]EQRFLEHLV-NH2)
